Source: patent US20220386606A1, “SPECIFICALLY SUBSTITUTED 3-PHENYL-5-SPIROCYCLOPENTYL-3-PYRROLIN-2-ONES AND THEIR USE AS HERBICIDES” (Bayer Aktiengesellschaft, priority 2019, published 2022)

Key:
[1] = tested on: ALOMY; test: Pre-emergence herbicidal action against ALOMY; assay type: in vivo, Alopecurus myosuroides; conditions: 320 g/ha, scored visually after 3 weeks vs untreated controls
Description: (§1) Seeds of monocotyledonous and dicotyledonous weed plants and crop plants are laid out in sandy loam soil in wood-fiber pots and covered with soil. The compounds of the invention, formulated in the form of wettable powders (WP) or as emulsion concentrates (EC), are then applied to the surface of the covering soil as aqueous suspension or emulsion at a water application rate equating to 600 to 800 L/ha with addition of 0.2% wetting agent.
(§2) After the treatment, the pots are placed in a greenhouse and kept under good growth conditions for the trial plants. The damage to the test plants is scored visually after a test period of 3 weeks by comparison with untreated controls (herbicidal activity in percent (%): 100% activity=the plants have died, 0% activity=like control plants).

[2] = tested on: AVEFA; test: Pre-emergence herbicidal action against AVEFA; assay type: in vivo, Avena fatua; conditions: 320 g/ha, scored visually after 3 weeks vs untreated controls
Description: as §1, §2

[3] = tested on: DIGSA; test: Pre-emergence herbicidal action against DIGSA; assay type: in vivo, Digitaria sanguinalis; conditions: 320 g/ha, scored visually after 3 weeks vs untreated controls
Description: as §1, §2

[4] = tested on: ECHCG; test: Pre-emergence herbicidal action against ECHCG; assay type: in vivo, Echinochloa crus-galli; conditions: 320 g/ha, scored visually after 3 weeks vs untreated controls
Description: as §1, §2

[5] = tested on: LOLRI; test: Pre-emergence herbicidal action against LOLRI (Table 8, titled post-emergence at 320 g/ha); assay type: in vivo, Lolium rigidum; conditions: table stands in the pre-emergence section
Description: as §1, §2

[6] = tested on: SETVI; test: Pre-emergence herbicidal action against SETVI; assay type: in vivo, Setaria viridis; conditions: 320 g/ha, scored visually after 3 weeks vs untreated controls
Description: as §1, §2

[7] = tested on: VIOTR; test: Pre-emergence herbicidal action against VIOTR; assay type: in vivo, Viola tricolor; conditions: 320 g/ha
Description: as §1, §2

[8] = tested on: ALOMY; test: Post-emergence herbicidal action against ALOMY; assay type: in vivo, Alopecurus myosuroides; conditions: 80 g/ha, visual assessment after about 3 weeks
Experimental: (§3) Seeds of monocotyledonous and dicotyledonous weed and crop plants are laid out in sandy loam soil in wood-fiber pots, covered with soil and cultivated in a greenhouse under good growth conditions. 2 to 3 weeks after sowing, the test plants are treated at the one-leaf stage. The compounds of the invention, formulated in the form of wettable powders (WP) or as emulsion concentrates (EC), are then sprayed onto the green parts of the plants as aqueous suspension or emulsion at a water application rate equating to 600 to 800 l/ha with addition of 0.2% wetting agent. After the test plants have been left to stand in the greenhouse under optimal growth conditions for about 3 weeks, the action of the preparations is assessed visually in comparison to untreated controls (herbicidal action in percent (%): 100% activity=the plants have died, 0% activity=like control plants).

[9] = tested on: DIGSA; test: Post-emergence herbicidal action against DIGSA; assay type: in vivo, Digitaria sanguinalis; conditions: 80 g/ha, visual assessment about 3 weeks after treatment vs untreated controls
Experimental: as §3

[10] = tested on: ECHCG; test: Post-emergence herbicidal action against ECHCG; assay type: in vivo, Echinochloa crus-galli; conditions: 80 g/ha, visual assessment about 3 weeks after treatment vs untreated controls
Experimental: as §3

[11] = tested on: LOLRI; test: Post-emergence herbicidal action against LOLRI; assay type: in vivo, Lolium rigidum; conditions: 80 g/ha, visual assessment about 3 weeks after treatment vs untreated controls
Experimental: as §3

[12] = tested on: SETVI; test: Post-emergence herbicidal action against SETVI; assay type: in vivo, Setaria viridis; conditions: 80 g/ha, visual assessment about 3 weeks after treatment vs untreated controls
Experimental: as §3

[13] = tested on: AVEFA; test: Post-emergence herbicidal action against AVEFA; assay type: in vivo, Avena fatua; conditions: 80 g/ha, visual assessment after about 3 weeks
Experimental: as §3

[14] = tested on: AMARE; test: Pre-emergence herbicidal action against AMARE; assay type: in vivo, Amaranthus retroflexus; conditions: 320 g/ha
Description: as §1, §2

CC#Cc1cc(C)c(C2=C(O)C3(CCC(COCC)C3)NC2=O)c(Br)c1 (stereo not shown) [Example I-20]
90%: Post-emergence action against DIGSA in % [9]
100%: Pre-emergence action against ALOMY in % [1] | Pre-emergence action against AVEFA in % [2] | Pre-emergence action against DIGSA in % [3] | Pre-emergence action against ECHCG in % [4] | Pre-emergence herbicidal action against LOLRI in % [5] | Pre-emergence action against SETVI in % [6] | Pre-emergence action against VIOTR in % [7] | Post-emergence action against ALOMY in % [8] | Post-emergence action against ECHCG in % [10] | Post-emergence action against LOLRI in % [11] | Post-emergence action against SETVI in % [12]

CC#Cc1cc(C)c(C2=C(O)C3(CCC(COC)C3)NC2=O)c(OC)c1 (stereo not shown) [Example I-33]
100%: Pre-emergence action against ALOMY in % [1] | Pre-emergence action against DIGSA in % [3] | Pre-emergence herbicidal action against LOLRI in % [5] | Pre-emergence action against SETVI in % [6] | Pre-emergence action against VIOTR in % [7] | Post-emergence action against ALOMY in % [8] | Post-emergence action against AVEFA in % [13] | Post-emergence action against DIGSA in % [9] | Post-emergence action against ECHCG in % [10] | Post-emergence action against LOLRI in % [11] | Post-emergence action against SETVI in % [12]
80%: Pre-emergence action against AVEFA in % [2]

C=CCOCC1CCC2(C1)NC(=O)C(c1c(C)cc(C#CC)cc1OC)=C2O (stereo not shown) [Example I-45]
100%: Pre-emergence action against DIGSA in % [3] | Pre-emergence action against ECHCG in % [4] | Pre-emergence herbicidal action against LOLRI in % [5] | Pre-emergence action against SETVI in % [6] | Post-emergence action against ECHCG in % [10] | Post-emergence action against SETVI in % [12]
90%: Post-emergence action against ALOMY in % [8] | Post-emergence action against DIGSA in % [9]
80%: Pre-emergence action against ALOMY in % [1] | Pre-emergence action against VIOTR in % [7] | Post-emergence action against AVEFA in % [13]

C=CCOCC1CCC2(C1)NC(=O)C(c1c(F)cc(C#CC)cc1OC)=C2O (stereo not shown) [Example I-55]
100%: Pre-emergence action against ALOMY in % [1] | Pre-emergence action against DIGSA in % [3] | Pre-emergence action against ECHCG in % [4] | Pre-emergence herbicidal action against LOLRI in % [5] | Pre-emergence action against SETVI in % [6] | Post-emergence action against ALOMY in % [8] | Post-emergence action against ECHCG in % [10] | Post-emergence action against SETVI in % [12]
90%: Post-emergence action against AVEFA in % [13]
80%: Pre-emergence action against AMARE in % [14]

C#CCOCC1CCC2(C1)NC(=O)C(c1c(C)cc(C#CC)cc1OC)=C2O (stereo not shown) [Example I-76]
90%: Pre-emergence action against VIOTR in % [7] | Post-emergence action against ALOMY in % [8] | Post-emergence action against AVEFA in % [13] | Post-emergence action against DIGSA in % [9] | Post-emergence action against LOLRI in % [11]
100%: Pre-emergence action against ALOMY in % [1] | Pre-emergence action against DIGSA in % [3] | Pre-emergence action against ECHCG in % [4] | Pre-emergence herbicidal action against LOLRI in % [5] | Pre-emergence action against SETVI in % [6] | Post-emergence action against ECHCG in % [10] | Post-emergence action against SETVI in % [12]

CC#Cc1cc(Br)c(C2=C(OC(=O)C(C)C)C3(CCC(COCC)C3)NC2=O)c(CC)c1 (stereo not shown) [Example P-43]
100%: Pre-emergence action against VIOTR in % [7]
